Test results reported in US20160038474A1, “COMPOSITIONS AND METHODS FOR THE MODULATION OF HEMOGLOBIN (S)” (GLOBAL BLOOD THERAPEUTICS, INC., priority 2013, published 2016).

Tests used:
Type in all cases: in vivo
[1] = Pharmacokinetics after single dose of GBT440 (FIG. 1), rat
From the text: (§1) FIG. 1 graphically illustrates the high oral bioavailability, sustained exposure and dramatic RBC partitioning following single dose of GBT440. Certain relevant pharmacokinetic parameters are tabulated below:
(§2) FIG. 1 in parts A, B, and C graphically illustrates the high in vivo oral bioavailability, sustained exposure and the high RBC partitioning following single dose of GBT440.

[2] = Pharmacokinetics after single dose of GBT440 (FIG. 1), dog
From the text: as §1, §2

[3] = Pharmacokinetics after single dose of GBT440 (FIG. 1), monkey
From the text: as §1, §2

Question: For `CC(C)n1nccc1-c1ncccc1COc1cccc(O)c1C=O` [GBT440], which bioavailability ([1]; in vivo, IV 1.6 mg/kg, PO 7.2 mg/kg, read-out: Oral bioavailability (% F)) is on record?
Answer: 59.8%

Question: And the blood plasma ratio ([1]; whole blood and plasma)?
Answer: 69

Question: What about the bioavailability ([2]; in vivo, IV 1 mg/kg, PO 2.5 mg/kg, read-out: Oral bioavailability (% F)) of the same molecule?
Answer: 36.6%

Question: What about the blood plasma ratio ([2]; whole blood and plasma) of the same molecule?
Answer: 74.4

Question: What about the bioavailability ([3]; in vivo, IV 1 mg/kg, PO 4.25 mg/kg, read-out: Oral bioavailability (% F)) of the same molecule?
Answer: 36.1%

Question: And the blood plasma ratio ([3]; whole blood and plasma)?
Answer: 70.9
